From PubChem BioAssay AID2060492 (Molecular Pharmacology Branch, DTP, NCI, 2025)

Test system: 695427-040-R-J1-PDC complex spheroids, viability percent T/C
Test: Anticancer human tumor 695427-040-R-J1-PDC patient-derived colon adenocarcinoma cell line growth inhibition [GQUAD]
Conditions: for IC50: curve of first compound; for viability, T/C: stronger effect = lower value
Procedure, shortened: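 Viability of tumor cells grown as complex spheroids with endothelial and stromal cells, exposed to drug combinations. Top concentration at or near clinical Cmax (else 10 microM), diluted in half-log increments.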

[1] = second compound 0.0316 µM, first compound 0.0316 µM
[2] = second compound 0.0316 µM, first compound 0.1 µM
[3] = second compound 0.0316 µM, first compound 0.316 µM
[4] = second compound 0.0316 µM, first compound 1 µM
[5] = second compound 0.0316 µM, first compound 3.16 µM
[6] = second compound 0.0316 µM, first compound 10 µM
[7] = second compound 0.1 µM, first compound 0.0316 µM
[8] = second compound 0.1 µM, first compound 0.1 µM
[9] = second compound 0.1 µM, first compound 0.316 µM
[10] = second compound 0.1 µM, first compound 1 µM
[11] = second compound 0.1 µM, first compound 3.16 µM
[12] = second compound 0.1 µM, first compound 10 µM
[13] = second compound 0.316 µM, first compound 0.0316 µM
[14] = second compound 0.316 µM, first compound 0.1 µM
[15] = second compound 0.316 µM, first compound 0.316 µM
[16] = second compound 0.316 µM, first compound 1 µM
[17] = second compound 0.316 µM, first compound 3.16 µM
[18] = second compound 0.316 µM, first compound 10 µM
[19] = second compound 1 µM, first compound 0.0316 µM
[20] = second compound 1 µM, first compound 0.1 µM
[21] = second compound 1 µM, first compound 0.316 µM
[22] = second compound 1 µM, first compound 1 µM
[23] = second compound 1 µM, first compound 3.16 µM
[24] = second compound 1 µM, first compound 10 µM
[25] = second compound 3.16 µM, first compound 0.0316 µM
[26] = second compound 3.16 µM, first compound 0.1 µM
[27] = second compound 3.16 µM, first compound 0.316 µM
[28] = second compound 3.16 µM, first compound 1 µM
[29] = second compound 3.16 µM, first compound 3.16 µM
[30] = second compound 3.16 µM, first compound 10 µM
[31] = second compound 10 µM, first compound 0.0316 µM
[32] = second compound 10 µM, first compound 0.1 µM
[33] = second compound 10 µM, first compound 0.316 µM
[34] = second compound 10 µM, first compound 1 µM
[35] = second compound 10 µM, first compound 3.16 µM
[36] = second compound 10 µM, first compound 10 µM
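Further: spheroids exposed to compounds for seven days before readout.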

Compound: CC(C)n1c(=O)n(C)c2cnc3cc(F)c(-c4ccc(OCCCN5CCCCC5)nc4)cc3c21 + Cc1[nH]c2ccc(F)cc2c1-c1nc2c3cccnc3c3ncccc3c2[nH]1
- IC50 (second compound 0.0316 µM): > 10000 nM
- IC50 (second compound 0.1 µM): > 10000 nM
- IC50 (second compound 0.316 µM): > 10000 nM
- IC50 (second compound 1 µM): 9840 nM
- IC50 (second compound 3.16 µM): > 10000 nM
- IC50 (second compound 10 µM): 7230 nM
- viability, T/C [1]: 116%
- viability, T/C [2]: 92.2%
- viability, T/C [3]: 116%
- viability, T/C [4]: 74.3%
- viability, T/C [5]: 93.5%
- viability, T/C [6]: 65.4%
- viability, T/C [7]: 101%
- viability, T/C [8]: 97.2%
- viability, T/C [9]: 128%
- viability, T/C [10]: 91.7%
- viability, T/C [11]: 94.3%
- viability, T/C [12]: 58.8%
- viability, T/C [13]: 102%
- viability, T/C [14]: 120%
- viability, T/C [15]: 96.4%
- viability, T/C [16]: 98.7%
- viability, T/C [17]: 99.2%
- viability, T/C [18]: 61.3%
- viability, T/C [19]: 84.2%
- viability, T/C [20]: 106%
- viability, T/C [21]: 111%
- viability, T/C [22]: 109%
- viability, T/C [23]: 106%
- viability, T/C [24]: 49.1%
- viability, T/C [25]: 86.8%
- viability, T/C [26]: 85%
- viability, T/C [27]: 94.8%
- viability, T/C [28]: 96.2%
- viability, T/C [29]: 92.2%
- viability, T/C [30]: 50.3%
- viability, T/C [31]: 61.7%
- viability, T/C [32]: 83%
- viability, T/C [33]: 95.5%
- viability, T/C [34]: 80.9%
- viability, T/C [35]: 87.1%
- viability, T/C [36]: 37.6%

Compound: CC1COCCN1c1cc(-c2ccnn2C)c2ccnc(-c3ccn[nH]3)c2n1 (stereo unspecified) + Cc1[nH]c2ccc(F)cc2c1-c1nc2c3cccnc3c3ncccc3c2[nH]1
- IC50 (second compound 0.0316 µM): 289 nM
- IC50 (second compound 0.1 µM): 271 nM
- IC50 (second compound 0.316 µM): 259 nM
- IC50 (second compound 1 µM): 136 nM
- IC50 (second compound 3.16 µM): 56.4 nM
- IC50 (second compound 10 µM): 69.7 nM
- viability, T/C [1]: 86.8%
- viability, T/C [2]: 63.2%
- viability, T/C [3]: 47.6%
- viability, T/C [4]: 42%
- viability, T/C [5]: 29.8%
- viability, T/C [6]: 27.2%
- viability, T/C [7]: 91.9%
- viability, T/C [8]: 63.6%
- viability, T/C [9]: 53.3%
- viability, T/C [10]: 30.3%
- viability, T/C [11]: 34.9%
- viability, T/C [12]: 30.4%
- viability, T/C [13]: 78.5%
- viability, T/C [14]: 75.5%
- viability, T/C [15]: 44.7%
- viability, T/C [16]: 28.5%
- viability, T/C [17]: 28.5%
- viability, T/C [18]: 30.1%
- viability, T/C [19]: 68.5%
- viability, T/C [20]: 54.5%
- viability, T/C [21]: 37.5%
- viability, T/C [22]: 31.8%
- viability, T/C [23]: 31.4%
- viability, T/C [24]: 29.7%
- viability, T/C [25]: 57.8%
- viability, T/C [26]: 41.7%
- viability, T/C [27]: 34.2%
- viability, T/C [28]: 31%
- viability, T/C [29]: 25.5%
- viability, T/C [30]: 27.1%
- viability, T/C [31]: 57.9%
- viability, T/C [32]: 47.5%
- viability, T/C [33]: 35.4%
- viability, T/C [34]: 29.6%
- viability, T/C [35]: 27.3%
- viability, T/C [36]: 20.7%

Compound: CC1COCCN1c1cc(C2(O)CC3CCC(C2)O3)c2cnn(-c3ccn[nH]3)c2n1 (stereo unspecified) + Cc1[nH]c2ccc(F)cc2c1-c1nc2c3cccnc3c3ncccc3c2[nH]1
- IC50 (second compound 0.0316 µM): 735 nM
- IC50 (second compound 0.1 µM): 590 nM
- IC50 (second compound 0.316 µM): 569 nM
- IC50 (second compound 1 µM): 290 nM
- IC50 (second compound 3.16 µM): 253 nM
- IC50 (second compound 10 µM): 455 nM
- viability, T/C [1]: 83.2%
- viability, T/C [2]: 84.2%
- viability, T/C [3]: 65.7%
- viability, T/C [4]: 42.5%
- viability, T/C [5]: 36%
- viability, T/C [6]: 24.6%
- viability, T/C [7]: 93.8%
- viability, T/C [8]: 77.5%
- viability, T/C [9]: 70.4%
- viability, T/C [10]: 31.4%
- viability, T/C [11]: 37.6%
- viability, T/C [12]: 28.1%
- viability, T/C [13]: 85.2%
- viability, T/C [14]: 64%
- viability, T/C [15]: 60.6%
- viability, T/C [16]: 41.7%
- viability, T/C [17]: 37.5%
- viability, T/C [18]: 30.2%
- viability, T/C [19]: 86.2%
- viability, T/C [20]: 55.8%
- viability, T/C [21]: 55.2%
- viability, T/C [22]: 33.6%
- viability, T/C [23]: 41%
- viability, T/C [24]: 21.2%
- viability, T/C [25]: 67%
- viability, T/C [26]: 55.8%
- viability, T/C [27]: 50.9%
- viability, T/C [28]: 34.2%
- viability, T/C [29]: 33.2%
- viability, T/C [30]: 17.4%
- viability, T/C [31]: 59%
- viability, T/C [32]: 59.8%
- viability, T/C [33]: 61.7%
- viability, T/C [34]: 27.9%
- viability, T/C [35]: 30.4%
- viability, T/C [36]: 22.3%
